One experiment concerns the target EGFR Del19/T790M/C797S (Homo sapiens, UniProt P00533, C797S/DEL746-750/T790M). Kind of experiment: Biochemical EGFR kinase inhibition assay (Lance Ultra TR-FRET), triple mutant del19/T790M/C797S. Put shortly:
(§1)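 Step 1: compound in kinase buffer, 0.003–10 μM. Step 2: kinase reaction 1 h at room temperature. Step 4: TR-FRET read at 615/665 nm; IC50 calculated.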

In a further experiment the target is EGFR L858R/T790M/C797S (Homo sapiens, UniProt P00533, C797S/L858R/T790M). The experiment in a line: Biochemical EGFR kinase inhibition assay (Lance Ultra TR-FRET), triple mutant L858R/T790M/C797S. Put shortly: as §1
Sequence of EGFR L858R/T790M/C797S (P00533 25-1210 T790M/C797S/L858R): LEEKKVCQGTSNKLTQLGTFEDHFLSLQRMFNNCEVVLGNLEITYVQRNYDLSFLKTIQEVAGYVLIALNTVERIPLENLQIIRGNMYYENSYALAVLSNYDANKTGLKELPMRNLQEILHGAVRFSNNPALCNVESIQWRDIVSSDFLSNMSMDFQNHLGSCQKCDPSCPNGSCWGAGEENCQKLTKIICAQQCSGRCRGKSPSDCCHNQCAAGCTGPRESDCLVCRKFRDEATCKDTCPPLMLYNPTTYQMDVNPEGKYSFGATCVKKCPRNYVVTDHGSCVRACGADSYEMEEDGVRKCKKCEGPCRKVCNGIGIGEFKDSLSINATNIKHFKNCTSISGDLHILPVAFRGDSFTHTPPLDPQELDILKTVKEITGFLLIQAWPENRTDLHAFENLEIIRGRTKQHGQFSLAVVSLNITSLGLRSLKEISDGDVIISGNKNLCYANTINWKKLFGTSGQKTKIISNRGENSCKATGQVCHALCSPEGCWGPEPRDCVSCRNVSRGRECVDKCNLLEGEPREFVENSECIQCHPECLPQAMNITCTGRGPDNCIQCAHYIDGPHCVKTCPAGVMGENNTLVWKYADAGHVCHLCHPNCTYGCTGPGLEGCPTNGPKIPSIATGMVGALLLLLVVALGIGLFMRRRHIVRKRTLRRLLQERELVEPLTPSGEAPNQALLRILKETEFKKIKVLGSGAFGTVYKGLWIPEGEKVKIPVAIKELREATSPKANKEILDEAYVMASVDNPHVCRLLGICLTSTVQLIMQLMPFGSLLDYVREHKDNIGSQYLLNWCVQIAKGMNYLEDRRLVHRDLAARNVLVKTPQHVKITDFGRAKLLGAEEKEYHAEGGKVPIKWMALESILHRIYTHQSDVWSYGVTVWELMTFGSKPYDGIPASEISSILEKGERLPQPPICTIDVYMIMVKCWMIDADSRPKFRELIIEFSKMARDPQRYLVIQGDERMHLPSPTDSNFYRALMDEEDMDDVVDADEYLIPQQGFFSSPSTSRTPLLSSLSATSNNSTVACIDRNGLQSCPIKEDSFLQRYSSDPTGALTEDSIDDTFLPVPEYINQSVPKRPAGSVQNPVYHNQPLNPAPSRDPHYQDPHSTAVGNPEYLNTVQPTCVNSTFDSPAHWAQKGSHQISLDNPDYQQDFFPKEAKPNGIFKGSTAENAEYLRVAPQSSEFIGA
In general terms: TR-FRET usually uses a lanthanide donor and a delayed reading to cut background.

The next experiment has as its target EGFR Del19/C797S (Homo sapiens, UniProt P00533, C797S/DEL746-750). Kind of experiment: Biochemical EGFR kinase inhibition assay (Lance Ultra TR-FRET), double mutant del19/C797S. The method in brief:
as §1

The next experiment deals with EGFR L858R/C797S (Homo sapiens, UniProt P00533, C797S/L858R). Kind of experiment: Biochemical EGFR kinase inhibition assay (Lance Ultra TR-FRET), double mutant L858R/C797S. The method in brief: as §1
Sequence of EGFR L858R/C797S (P00533 25-1210 C797S/L858R): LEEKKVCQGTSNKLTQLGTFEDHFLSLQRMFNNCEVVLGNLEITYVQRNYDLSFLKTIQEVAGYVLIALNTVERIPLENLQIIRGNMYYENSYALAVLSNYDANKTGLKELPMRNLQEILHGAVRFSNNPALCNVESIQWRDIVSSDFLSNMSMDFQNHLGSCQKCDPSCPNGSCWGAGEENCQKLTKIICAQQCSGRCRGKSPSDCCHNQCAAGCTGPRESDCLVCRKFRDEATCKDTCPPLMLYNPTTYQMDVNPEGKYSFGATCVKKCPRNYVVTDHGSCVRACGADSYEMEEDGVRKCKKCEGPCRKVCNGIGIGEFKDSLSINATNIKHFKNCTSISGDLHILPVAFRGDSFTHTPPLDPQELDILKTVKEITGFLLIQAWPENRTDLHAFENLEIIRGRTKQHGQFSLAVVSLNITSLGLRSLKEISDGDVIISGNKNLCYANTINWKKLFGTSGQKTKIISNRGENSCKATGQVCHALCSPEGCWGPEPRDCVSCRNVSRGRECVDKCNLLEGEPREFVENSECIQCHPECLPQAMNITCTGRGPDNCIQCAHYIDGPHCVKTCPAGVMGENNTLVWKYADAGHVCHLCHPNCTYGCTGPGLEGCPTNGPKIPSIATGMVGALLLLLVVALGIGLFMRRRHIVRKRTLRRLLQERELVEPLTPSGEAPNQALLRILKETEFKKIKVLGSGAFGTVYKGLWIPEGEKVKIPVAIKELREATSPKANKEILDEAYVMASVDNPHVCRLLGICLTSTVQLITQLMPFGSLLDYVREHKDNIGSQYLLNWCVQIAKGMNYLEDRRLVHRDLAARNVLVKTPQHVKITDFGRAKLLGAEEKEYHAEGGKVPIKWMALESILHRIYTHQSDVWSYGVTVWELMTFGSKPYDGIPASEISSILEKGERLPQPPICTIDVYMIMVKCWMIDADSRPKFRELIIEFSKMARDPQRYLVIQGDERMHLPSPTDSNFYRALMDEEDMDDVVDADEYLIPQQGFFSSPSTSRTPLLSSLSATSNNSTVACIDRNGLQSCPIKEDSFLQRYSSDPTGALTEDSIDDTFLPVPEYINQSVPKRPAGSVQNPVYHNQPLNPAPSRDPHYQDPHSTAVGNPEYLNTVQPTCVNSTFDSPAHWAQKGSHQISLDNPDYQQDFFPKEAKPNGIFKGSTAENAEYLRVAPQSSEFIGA
A further experiment addresses EGFR wildtype (WT) (Homo sapiens, UniProt P00533). Kind of experiment: Biochemical EGFR kinase inhibition assay (Lance Ultra TR-FRET), wildtype. Put shortly: as §1
The mark [1] stands for this setting: ATP at Km, read-out: IC50 Del19/T790M/C797S (nM), Km ATP.
Where [2] appears, read: IC50 Del19/T790M/C797S (nM), 100 μM ATP.
The mark [3] stands for this setting: ATP at Km, read-out: IC50 L858R/T790M/C797S (nM), Km ATP.
Setting [4] is: IC50 L858R/T790M/C797S (nM), 100 μM ATP.
The mark [5] stands for this setting: ATP at Km, read-out: IC50 Del19/C797S (nM), Km ATP.
[6] abbreviates: IC50 Del19/C797S (nM), 100 μM ATP.
Where [7] appears, read: ATP at Km, read-out: IC50 L858R/C797S (nM), Km ATP.
The mark [8] stands for this setting: IC50 L858R/C797S (nM), 100 μM ATP.
[9] abbreviates: ATP at Km, read-out: IC50 WT (nM), Km ATP.
Where [10] appears, read: Km ATP, read-out: IC50 Del19/C797S (nM), Km ATP.
Where [11] appears, read: Km ATP, read-out: IC50 L858R/C797S (nM), Km ATP.
Where [12] appears, read: Km ATP, read-out: IC50 WT (nM), Km ATP.
Setting [13] is: Km ATP, read-out: IC50 Del19/T790M/C797S (nM) Km ATP.
[14] abbreviates: Km ATP, read-out: IC50 L858R/T790M/C797S (nM) Km ATP.
Where [15] appears, read: Km ATP, read-out: IC50 Del19/C797S (nM) Km ATP.
The mark [16] stands for this setting: Km ATP, read-out: IC50 L858R/C797S (nM) Km ATP.
The mark [17] stands for this setting: Km ATP, read-out: IC50 WT (nM) Km ATP.

Read-outs that look alike come from different tables or passages of the source.

Sequence of EGFR wildtype (WT) (P00533 25-1210): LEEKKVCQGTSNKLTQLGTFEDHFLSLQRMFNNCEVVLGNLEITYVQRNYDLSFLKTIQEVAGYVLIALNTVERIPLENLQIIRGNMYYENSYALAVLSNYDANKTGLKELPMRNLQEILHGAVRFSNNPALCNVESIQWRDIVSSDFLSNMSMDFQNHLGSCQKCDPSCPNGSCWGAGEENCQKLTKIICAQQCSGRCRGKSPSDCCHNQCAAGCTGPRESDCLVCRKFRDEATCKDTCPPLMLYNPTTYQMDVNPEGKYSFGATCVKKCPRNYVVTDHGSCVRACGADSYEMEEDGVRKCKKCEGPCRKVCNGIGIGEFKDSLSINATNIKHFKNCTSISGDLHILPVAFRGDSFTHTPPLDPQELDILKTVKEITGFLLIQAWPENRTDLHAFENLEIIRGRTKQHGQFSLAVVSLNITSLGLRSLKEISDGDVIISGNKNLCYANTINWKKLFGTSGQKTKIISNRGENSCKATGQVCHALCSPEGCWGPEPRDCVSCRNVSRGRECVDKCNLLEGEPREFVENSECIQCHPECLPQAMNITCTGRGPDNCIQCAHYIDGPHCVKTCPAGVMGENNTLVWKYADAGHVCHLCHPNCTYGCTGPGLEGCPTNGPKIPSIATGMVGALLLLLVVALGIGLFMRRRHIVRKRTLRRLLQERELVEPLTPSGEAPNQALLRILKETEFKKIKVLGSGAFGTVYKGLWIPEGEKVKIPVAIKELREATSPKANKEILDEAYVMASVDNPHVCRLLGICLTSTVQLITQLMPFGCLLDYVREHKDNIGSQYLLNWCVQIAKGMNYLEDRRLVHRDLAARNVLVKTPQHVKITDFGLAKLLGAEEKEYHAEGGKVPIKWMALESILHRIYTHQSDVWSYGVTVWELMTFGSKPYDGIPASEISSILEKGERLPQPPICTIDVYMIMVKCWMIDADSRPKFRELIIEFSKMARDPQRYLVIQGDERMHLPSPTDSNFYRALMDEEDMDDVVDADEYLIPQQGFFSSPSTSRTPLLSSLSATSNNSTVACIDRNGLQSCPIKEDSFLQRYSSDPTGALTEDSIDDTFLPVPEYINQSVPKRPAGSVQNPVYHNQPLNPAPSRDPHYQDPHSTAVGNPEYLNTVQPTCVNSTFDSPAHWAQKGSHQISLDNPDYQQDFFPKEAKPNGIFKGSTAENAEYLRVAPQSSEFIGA
Sequence of EGFR Del19/T790M/C797S (P00533 with tags, fused parts or gaps DEL746-750/T790M/C797S): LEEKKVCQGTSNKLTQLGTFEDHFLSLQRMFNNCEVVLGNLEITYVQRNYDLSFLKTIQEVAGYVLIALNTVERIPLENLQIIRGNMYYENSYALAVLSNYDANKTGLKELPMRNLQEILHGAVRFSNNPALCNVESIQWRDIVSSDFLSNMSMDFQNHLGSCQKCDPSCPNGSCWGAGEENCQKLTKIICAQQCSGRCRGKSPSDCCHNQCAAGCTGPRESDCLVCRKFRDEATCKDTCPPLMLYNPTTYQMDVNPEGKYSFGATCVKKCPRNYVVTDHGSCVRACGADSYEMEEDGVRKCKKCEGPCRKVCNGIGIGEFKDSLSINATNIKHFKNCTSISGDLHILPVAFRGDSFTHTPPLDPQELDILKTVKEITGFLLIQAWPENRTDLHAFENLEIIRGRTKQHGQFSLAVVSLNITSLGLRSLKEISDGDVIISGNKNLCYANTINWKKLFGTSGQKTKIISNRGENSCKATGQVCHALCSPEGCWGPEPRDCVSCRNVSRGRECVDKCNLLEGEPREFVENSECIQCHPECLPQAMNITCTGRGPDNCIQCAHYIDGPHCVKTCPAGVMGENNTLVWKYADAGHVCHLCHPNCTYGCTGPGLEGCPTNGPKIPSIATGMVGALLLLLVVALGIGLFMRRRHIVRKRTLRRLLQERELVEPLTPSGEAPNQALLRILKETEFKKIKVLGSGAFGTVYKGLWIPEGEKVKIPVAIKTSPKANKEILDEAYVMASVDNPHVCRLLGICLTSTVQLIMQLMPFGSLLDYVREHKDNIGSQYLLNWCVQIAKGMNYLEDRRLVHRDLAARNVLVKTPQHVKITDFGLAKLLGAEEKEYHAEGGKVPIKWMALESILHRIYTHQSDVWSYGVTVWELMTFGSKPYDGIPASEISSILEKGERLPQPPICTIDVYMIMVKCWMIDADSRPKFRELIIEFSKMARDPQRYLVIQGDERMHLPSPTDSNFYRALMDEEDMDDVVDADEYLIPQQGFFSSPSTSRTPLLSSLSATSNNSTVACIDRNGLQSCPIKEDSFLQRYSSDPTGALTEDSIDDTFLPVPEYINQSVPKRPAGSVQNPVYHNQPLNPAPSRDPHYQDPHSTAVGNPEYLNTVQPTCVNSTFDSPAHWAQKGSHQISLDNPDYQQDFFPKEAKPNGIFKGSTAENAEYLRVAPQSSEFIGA

With `O=S(=O)(C1CC1)n1cc(-c2nccc(Nc3cc(N[C@H]4CC[C@@H](CO)CC4)c(C#Cc4cnn(CC(F)F)c4)cn3)n2)cn1` [Example 324, ((1s,4s)-4-((2-((2-(1-(Cyclopropylsulfonyl)-1H-pyrazol-4-yl)pyrimidin-4-yl)amino)-5-((1-(2,2-difluoroethyl)-1H-pyrazol-4-yl)ethynyl)pyridin-4-yl)amino)cyclohexyl)methanol], the IC50 on EGFR Del19/T790M/C797S (setting [1]) came out at 0.3 nM; against EGFR Del19/T790M/C797S (setting [2]) it was 0.3 nM; at EGFR L858R/T790M/C797S (setting [3]), 0.2 nM; on EGFR L858R/T790M/C797S (setting [4]), 0.5 nM; on EGFR Del19/C797S (setting [5]) it was 1.3 nM; against EGFR Del19/C797S (setting [6]), 2 nM. Moreover, the IC50 on EGFR L858R/C797S (setting [7]) is 3.7 nM; on EGFR L858R/C797S (setting [8]), 20.9 nM; at EGFR wildtype (WT) (setting [9]), 16.5 nM; on EGFR wildtype (WT) (IC50 WT (nM), 100 μM ATP) it was greater than 10000 nM.
As to `COC1(O)CCN(c2cc(Nc3ccnc(-c4cnn(S(=O)(=O)C5CC5)c4)n3)ncc2C#CC2CCN(C)C2)CC1` (stereo not shown) [Example 371, 1-(2-((2-(1-(Cyclopropylsulfonyl)-1H-pyrazol-4-yl)pyrimidin-4-yl)amino)-5-((1-methylpyrrolidin-3-yl)ethynyl)pyridin-4-yl)-4-methoxypiperidin-4-ol], the IC50 came to 0.3 nM on EGFR Del19/T790M/C797S (setting [2]); 0.3 nM on EGFR Del19/T790M/C797S (Km ATP, read-out: IC50 Del19/T790M/C797S (nM), Km ATP); 0.4 nM against EGFR L858R/T790M/C797S (setting [4]); 0.1 nM at EGFR L858R/T790M/C797S (Km ATP, read-out: IC50 L858R/T790M/C797S (nM), Km ATP); 2.5 nM on EGFR Del19/C797S (setting [6]); 1.5 nM at EGFR Del19/C797S (setting [10]). Besides, the IC50 on EGFR L858R/C797S (setting [8]) is 53.2 nM; on EGFR L858R/C797S (setting [11]), 3.3 nM; on EGFR wildtype (WT) (IC50 WT (nM), 100 μM ATP), 3730 nM; at EGFR wildtype (WT) (setting [12]), 9.4 nM.
As to `CC1(CO)CCN(c2cc(Nc3ccnc(-c4cnn(S(=O)(=O)C5CC5)c4)n3)ncc2C#CC2CCN(C(=O)C(F)(F)F)C2)CC1` (stereo not shown) [Example 415, 1-(3-((6-((2-(1-(Cyclopropylsulfonyl)-1H-pyrazol-4-yl)pyrimidin-4-yl)amino)-4-(4-(hydroxymethyl)-4-methylpiperidin-1-yl)pyridin-3-yl)ethynyl)pyrrolidin-1-yl)-2,2,2-trifluoroethan-1-one], the IC50 at EGFR Del19/T790M/C797S (setting [2]) stood at 0.2 nM; on EGFR L858R/T790M/C797S (setting [4]), 1.7 nM; against EGFR Del19/C797S (setting [6]) it was 1.2 nM; against EGFR L858R/C797S (setting [8]) it was 21.6 nM; against EGFR wildtype (WT) (IC50 WT (nM), 100 μM ATP) it was 5060 nM.
Regarding `CN(C)CCC1CCN(c2cc(Nc3ccnc(-c4cnn(S(=O)(=O)C5CC5)c4)n3)ncc2C#CC2(C)CC2)CC1` [Example 407, 2-(1-(Cyclopropylsulfonyl)-1H-pyrazol-4-yl)-N-(4-(4-(2-(dimethylamino)ethyl)piperidin-1-yl)-5-((1-methylcyclopropyl)ethynyl)pyridin-2-yl)pyrimidin-4-amine], the IC50 against EGFR Del19/T790M/C797S (setting [2]) is 0.3 nM; on EGFR L858R/T790M/C797S (setting [4]), 0.4 nM; against EGFR Del19/C797S (setting [6]), 0.7 nM; at EGFR Del19/C797S (setting [10]), 0.6 nM; at EGFR L858R/C797S (setting [8]), 13 nM; at EGFR L858R/C797S (setting [11]), 0.8 nM. Also, the IC50 was 1260 nM at EGFR wildtype (WT) (IC50 WT (nM), 100 μM ATP) and 4.4 nM at EGFR wildtype (WT) (setting [12]).
Consider `CN(C)CC1(C)CCN(c2cc(Nc3ccnc(-c4cnn(S(=O)(=O)C5CC5)c4)n3)ncc2C#Cc2cnn(CC(F)F)c2)CC1` [Example 302, 2-(1-(Cyclopropylsulfonyl)-1H-pyrazol-4-yl)-N-(5-((1-(2,2-difluoroethyl)-1H-pyrazol-4-yl)ethynyl)-4-(4-((dimethylamino)methyl)-4-methylpiperidin-1-yl)pyridin-2-yl)pyrimidin-4-amine], for which the IC50 on EGFR Del19/T790M/C797S (setting [1]) came out at 0.1 nM; against EGFR Del19/T790M/C797S (setting [2]) it was 0.3 nM; at EGFR L858R/T790M/C797S (setting [3]) it was 0.1 nM; at EGFR L858R/T790M/C797S (setting [4]), 0.3 nM; on EGFR Del19/C797S (setting [5]), 0.8 nM; on EGFR Del19/C797S (setting [6]) it was 0.7 nM. The IC50 at EGFR L858R/C797S (setting [7]) worked out at 1.5 nM; at EGFR L858R/C797S (setting [8]), 11.5 nM; on EGFR wildtype (WT) (setting [9]) it was 5 nM; against EGFR wildtype (WT) (IC50 WT (nM), 100 μM ATP) it was 2690 nM.
As to `Cn1ccc(C#Cc2cnc(Nc3ccnc(-c4cnn(S(=O)(=O)C5CC5)c4)n3)cc2N2CCC(C)(CO)CC2)n1` [Example 107, (1-(2-((2-(1-(Cyclopropylsulfonyl)-1H-pyrazol-4-yl)pyrimidin-4-yl)amino)-5-((1-methyl-1H-pyrazol-3-yl)ethynyl)pyridin-4-yl)-4-methylpiperidin-4-yl)methanol], the IC50 was determined as 1.2 nM on EGFR Del19/T790M/C797S (setting [2]); 1.2 nM on EGFR Del19/T790M/C797S (setting [13]); 1.3 nM on EGFR L858R/T790M/C797S (setting [4]); 0.6 nM on EGFR L858R/T790M/C797S (setting [14]); 4.6 nM against EGFR Del19/C797S (setting [6]); 3.2 nM at EGFR Del19/C797S (setting [15]). Further, the IC50 at EGFR L858R/C797S (setting [8]) is 85.6 nM; on EGFR L858R/C797S (setting [16]), 1.9 nM; on EGFR wildtype (WT) (IC50 WT (nM), 100 μM ATP), greater than 10000 nM; on EGFR wildtype (WT) (setting [17]) it was 24.1 nM.
On to `Cn1cc(C#Cc2cnc(Nc3ccnc(-c4cnn(S(=O)(=O)C5CC5)c4)n3)cc2NC2CCCCC2)cn1` [Example 2, N^4-Cyclohexyl-N^2-(2-(1-(cyclopropylsulfonyl)-1H-pyrazol-4-yl)pyrimidin-4-yl)-5-((1-methyl-1H-pyrazol-4-yl)ethynyl)pyridine-2,4-diamine], for which the IC50 is 5.7 nM on EGFR Del19/T790M/C797S (setting [13]); 11.2 nM on EGFR L858R/T790M/C797S (setting [14]); 112 nM at EGFR Del19/C797S (setting [15]); 143 nM at EGFR L858R/C797S (setting [16]); 881 nM at EGFR wildtype (WT) (setting [17]).
As to `CN(C)CC1(C)CCN(c2cc(Nc3ccnc(-c4cnn(S(=O)(=O)C5CC5)c4)n3)ncc2C#Cc2cnn(C3CC3)c2)CC1` [Example 299, N-(5-((1-Cyclopropyl-1H-pyrazol-4-yl)ethynyl)-4-(4-((dimethylamino)methyl)-4-methylpiperidin-1-yl)pyridin-2-yl)-2-(1-(cyclopropylsulfonyl)-1H-pyrazol-4-yl)pyrimidin-4-amine], the IC50 is 0.2 nM at EGFR Del19/T790M/C797S (setting [1]); 0.2 nM at EGFR Del19/T790M/C797S (setting [2]); 0.1 nM at EGFR L858R/T790M/C797S (setting [3]); 0.2 nM on EGFR L858R/T790M/C797S (setting [4]); 1.1 nM on EGFR Del19/C797S (setting [5]); 1 nM against EGFR Del19/C797S (setting [6]). Also, the IC50 at EGFR L858R/C797S (setting [7]) was 1.4 nM; at EGFR L858R/C797S (setting [8]), 17.2 nM; on EGFR wildtype (WT) (setting [9]), 4.7 nM; against EGFR wildtype (WT) (IC50 WT (nM), 100 μM ATP), 7510 nM.
For the compound `O=S(=O)(C1CC1)n1cc(-c2nccc(Nc3cc(N[C@H]4CCC[C@@H](O)C4)c(C#Cc4ccc(CN5CCOCC5)cc4)cn3)n2)cn1` [Example 159, (1R,3S)-3-((2-((2-(1-(Cyclopropylsulfonyl)-1H-pyrazol-4-yl)pyrimidin-4-yl)amino)-5-((4-(morpholinomethyl)phenyl)ethynyl)pyridin-4-yl)amino)cyclohexan-1-ol], the IC50 at EGFR Del19/T790M/C797S (setting [1]) worked out at 8.3 nM; at EGFR Del19/T790M/C797S (setting [2]), 10.6 nM; on EGFR L858R/T790M/C797S (setting [3]), 3.4 nM; on EGFR L858R/T790M/C797S (setting [4]) it was 9.6 nM; on EGFR Del19/C797S (setting [5]), 7.7 nM; at EGFR Del19/C797S (setting [6]), 21.7 nM. The IC50 at EGFR L858R/C797S (setting [7]) is 7.4 nM; on EGFR L858R/C797S (setting [8]), 98.5 nM; at EGFR wildtype (WT) (setting [9]), 85.5 nM; against EGFR wildtype (WT) (IC50 WT (nM), 100 μM ATP) it was greater than 10000 nM.
On to `CC1(CO)CCN(c2cc(Nc3ccnc(-c4cnn(S(=O)(=O)C5CC5)c4)n3)ncc2C#CCC(F)(F)F)CC1` [Example 275, (1-(2-((2-(1-(Cyclopropylsulfonyl)-1H-pyrazol-4-yl)pyrimidin-4-yl)amino)-5-(4,4,4-trifluorobut-1-yn-1-yl)pyridin-4-yl)-4-methylpiperidin-4-yl)methanol], for which the IC50 was 1 nM on EGFR Del19/T790M/C797S (setting [1]); 1.7 nM against EGFR Del19/T790M/C797S (setting [2]); 0.8 nM at EGFR L858R/T790M/C797S (setting [3]); 3.6 nM on EGFR L858R/T790M/C797S (setting [4]); 4.5 nM at EGFR Del19/C797S (setting [5]); 10.4 nM at EGFR Del19/C797S (setting [6]). Also, the IC50 is 12.3 nM on EGFR L858R/C797S (setting [7]); 118 nM at EGFR L858R/C797S (setting [8]); 62.3 nM at EGFR wildtype (WT) (setting [9]); greater than 10000 nM on EGFR wildtype (WT) (IC50 WT (nM), 100 μM ATP).
